Assay results reported in patent US10160755B2 (Plexxikon Inc., priority 2015, dated 2018).

How the values were obtained:
FLT3-D835Y = biological target: T1, FLT3-D835Y (Homo sapiens, UniProt P36888, D835Y); experiment: FLT3-D835Y biochemical kinase assay (AlphaScreen)
T1 construct: purchased Invitrogen PV3967
T1 sequence (P36888 27-993 D835Y): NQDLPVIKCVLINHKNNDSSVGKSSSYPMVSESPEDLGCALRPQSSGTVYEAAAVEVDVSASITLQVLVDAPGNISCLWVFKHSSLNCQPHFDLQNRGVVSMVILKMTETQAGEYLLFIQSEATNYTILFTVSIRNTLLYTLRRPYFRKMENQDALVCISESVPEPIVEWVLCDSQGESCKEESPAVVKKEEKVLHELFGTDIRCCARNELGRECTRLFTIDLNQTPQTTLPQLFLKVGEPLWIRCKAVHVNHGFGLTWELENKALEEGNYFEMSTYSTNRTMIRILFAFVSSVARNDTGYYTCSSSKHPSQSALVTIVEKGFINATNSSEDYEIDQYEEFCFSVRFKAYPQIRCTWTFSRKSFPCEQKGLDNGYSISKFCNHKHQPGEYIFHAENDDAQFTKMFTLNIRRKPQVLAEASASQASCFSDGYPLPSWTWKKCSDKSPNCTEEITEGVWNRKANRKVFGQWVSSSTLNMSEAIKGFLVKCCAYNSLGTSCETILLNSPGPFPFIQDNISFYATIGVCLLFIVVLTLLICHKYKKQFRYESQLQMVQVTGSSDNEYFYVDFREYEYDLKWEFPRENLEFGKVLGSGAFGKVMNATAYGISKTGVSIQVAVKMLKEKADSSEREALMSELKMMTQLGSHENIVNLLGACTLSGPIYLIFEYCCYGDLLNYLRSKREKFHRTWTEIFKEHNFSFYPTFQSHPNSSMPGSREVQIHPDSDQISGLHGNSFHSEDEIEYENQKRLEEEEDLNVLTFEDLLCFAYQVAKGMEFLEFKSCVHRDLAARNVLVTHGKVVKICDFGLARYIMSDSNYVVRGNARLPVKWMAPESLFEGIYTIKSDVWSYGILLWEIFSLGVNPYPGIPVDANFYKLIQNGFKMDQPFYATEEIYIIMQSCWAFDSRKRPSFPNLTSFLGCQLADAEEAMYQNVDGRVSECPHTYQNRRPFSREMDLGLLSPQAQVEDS
How it was run: (§1)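 Compounds were tested against recombinant enzyme using AlphaScreen detection of tyrosine-phosphorylated biotin-poly(Glu4-Tyr) (30 nM final). The ATP concentration differed by construct: 10 μM for D835Y, 100 μM for ITD.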

FLT3-ITD = biological target: T2, FLT3-ITD (Homo sapiens, UniProt P36888); experiment: FLT3-ITD biochemical kinase assay (AlphaScreen)
T2 construct: FLT3-ITD; Invitrogen #PV6190
T2 sequence (P36888 1-993): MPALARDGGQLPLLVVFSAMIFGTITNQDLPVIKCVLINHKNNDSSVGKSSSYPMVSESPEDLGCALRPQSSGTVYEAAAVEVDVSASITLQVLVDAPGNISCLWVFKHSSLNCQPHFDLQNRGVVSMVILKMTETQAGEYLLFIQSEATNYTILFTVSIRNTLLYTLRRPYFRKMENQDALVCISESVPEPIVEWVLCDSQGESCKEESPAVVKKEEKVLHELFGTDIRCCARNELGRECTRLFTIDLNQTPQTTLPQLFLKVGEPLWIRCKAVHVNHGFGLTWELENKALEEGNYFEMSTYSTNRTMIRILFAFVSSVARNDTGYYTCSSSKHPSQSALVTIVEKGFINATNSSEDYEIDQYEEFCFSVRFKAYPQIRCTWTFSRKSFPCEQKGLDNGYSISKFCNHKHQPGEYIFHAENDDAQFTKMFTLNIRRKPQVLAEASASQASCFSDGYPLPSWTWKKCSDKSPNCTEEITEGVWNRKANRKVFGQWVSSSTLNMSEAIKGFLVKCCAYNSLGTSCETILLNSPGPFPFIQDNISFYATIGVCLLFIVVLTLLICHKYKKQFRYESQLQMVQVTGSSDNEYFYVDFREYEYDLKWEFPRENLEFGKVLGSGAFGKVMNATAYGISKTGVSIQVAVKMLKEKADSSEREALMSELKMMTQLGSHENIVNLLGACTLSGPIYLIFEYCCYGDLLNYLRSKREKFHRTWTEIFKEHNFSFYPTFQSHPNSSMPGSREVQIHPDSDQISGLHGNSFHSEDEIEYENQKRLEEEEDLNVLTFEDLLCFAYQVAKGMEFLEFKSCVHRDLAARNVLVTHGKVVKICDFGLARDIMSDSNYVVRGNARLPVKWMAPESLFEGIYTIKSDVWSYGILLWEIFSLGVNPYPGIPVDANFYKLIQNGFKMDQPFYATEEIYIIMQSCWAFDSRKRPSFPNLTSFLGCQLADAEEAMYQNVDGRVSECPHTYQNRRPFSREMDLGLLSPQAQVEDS
How it was run: as §1

c-Kit = c-Kit (Homo sapiens, UniProt P10721); experiment: c-Kit biochemical assay (per US 2007/0032519)
Experimental: The following Table 2 provides data indicating FLT3 ITD, FLT3 D835Y, and KIT biochemical activity, and BaF3 FLT3 ITD/F69L cellular inhibitory activity for exemplary compounds described in this disclosure. In the table below, activity is provided as follows: +++=0.0001<IC50<1 μM; ++=1 μM<IC50<10 μM, +=10 μM<IC50<200 μM. Assays for the biochemical activity of c-Kit and FMS were conducted according to those assays described in US Patent Application Publication number US 2007/0032519, the disclosure of which is hereby incorporated by reference in its entirety.

Sequence of c-Kit (P10721 26-976): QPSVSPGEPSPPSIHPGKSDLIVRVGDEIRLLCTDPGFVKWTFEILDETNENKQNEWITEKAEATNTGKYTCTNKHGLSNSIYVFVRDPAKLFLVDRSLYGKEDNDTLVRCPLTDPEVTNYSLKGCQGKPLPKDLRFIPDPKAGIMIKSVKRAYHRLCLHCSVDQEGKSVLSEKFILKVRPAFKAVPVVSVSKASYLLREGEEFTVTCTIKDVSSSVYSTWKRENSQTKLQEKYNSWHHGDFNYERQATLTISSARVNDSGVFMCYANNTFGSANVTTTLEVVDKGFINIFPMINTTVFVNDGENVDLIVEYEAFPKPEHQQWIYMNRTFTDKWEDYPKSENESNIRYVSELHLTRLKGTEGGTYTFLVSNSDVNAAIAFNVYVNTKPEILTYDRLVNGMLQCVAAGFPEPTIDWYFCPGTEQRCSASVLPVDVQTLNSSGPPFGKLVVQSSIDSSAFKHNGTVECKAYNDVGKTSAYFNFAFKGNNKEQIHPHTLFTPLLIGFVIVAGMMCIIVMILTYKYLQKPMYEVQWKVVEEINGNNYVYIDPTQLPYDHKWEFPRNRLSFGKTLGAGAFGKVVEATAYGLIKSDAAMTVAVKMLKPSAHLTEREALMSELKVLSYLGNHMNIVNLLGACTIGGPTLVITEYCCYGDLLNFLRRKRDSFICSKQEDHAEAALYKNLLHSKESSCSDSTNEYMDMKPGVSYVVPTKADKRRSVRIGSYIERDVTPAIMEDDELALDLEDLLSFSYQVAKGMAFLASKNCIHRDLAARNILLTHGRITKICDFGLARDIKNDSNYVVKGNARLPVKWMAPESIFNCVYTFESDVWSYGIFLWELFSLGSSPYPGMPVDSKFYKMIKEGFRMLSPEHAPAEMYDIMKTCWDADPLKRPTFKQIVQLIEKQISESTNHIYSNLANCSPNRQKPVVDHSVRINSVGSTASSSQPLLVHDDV

| Structure (SMILES) | IC50 (FLT3-D835Y) | IC50 (FLT3-ITD) | IC50 (c-Kit) |
| --- | --- | --- | --- |
| CS(=O)(=O)Nc1cccc(-c2cnc3[nH]cc(-c4ccc5c(c4)OC(F)(F)O5)c3n2)c1 [P-064, N-[3-[7-(2,2-difluoro-1,3-benzodioxol-5-yl)-5H-pyrrolo[2,3-b]pyrazin-2-yl]phenyl]methanesulfonamide] | 1 to 10 µM | 1 to 10 µM | 10 to 200 µM |
| CC(C)(C)n1cnc2ccc(-c3c[nH]c4ncc(C5=CCN(C(=O)C6CC6)C5)cc34)cc21 [P-134, [3-[3-(3-tert-butylbenzimidazol-5-yl)-1H-pyrrolo[2,3-b]pyridin-5-yl]-2,5-dihydropyrrol-1-yl]-cyclopropyl-methanone] | 0.0001 to 1 µM | 0.0001 to 1 µM | 10 to 200 µM |
| COc1cnc2[nH]cc(-c3ccc4ncn(C5CC5)c4c3)c2c1 [P-060, 1-cyclopropyl-6-(5-methoxy-1H-pyrrolo[2,3-b]pyridin-3-yl)benzimidazole] | 0.0001 to 1 µM | 0.0001 to 1 µM | 10 to 200 µM |
| CC(C)(C)n1cnc2ccc(-c3c[nH]c4ncc(C5=CCN(C(=O)C6CC6)C5)nc34)cc21 [P-127, [3-[7-(3-tert-butylbenzimidazol-5-yl)-5H-pyrrolo[2,3-b]pyrazin-2-yl]-2,5-dihydropyrrol-1-yl]-cyclopropyl-methanone] | 0.0001 to 1 µM | 0.0001 to 1 µM | 1 to 10 µM |
| CS(=O)(=O)Nc1cccc(-c2cnc3[nH]cc(-c4ccc5c(c4)OCCO5)c3n2)c1 [P-059, N-[3-[7-(2,3-dihydro-1,4-benzodioxin-6-yl)-5H-pyrrolo[2,3-b]pyrazin-2-yl]phenyl]methanesulfonamide] | 0.0001 to 1 µM | 0.0001 to 1 µM | 10 to 200 µM |
| COc1cnc2[nH]cc(-c3ccc4ncn(C(C)C)c4c3)c2c1 [P-050, 1-isopropyl-6-(5-methoxy-1H-pyrrolo[2,3-b]pyridin-3-yl)benzimidazole] |  | 0.0001 to 1 µM | 10 to 200 µM |
| Cc1nn(C)cc1-c1ccc(-c2cnc3[nH]cc(-c4ccc5ncn(C(C)(C)C)c5c4)c3n2)cc1 [P-323, 7-(3-tert-butylbenzimidazol-5-yl)-2-[4-(1,3-dimethylpyrazol-4-yl)phenyl]-5H-pyrrolo[2,3-b]pyrazine] |  | 0.0001 to 1 µM | 1 to 10 µM |
| Nc1n[nH]c2ccc(-c3c[nH]c4ncccc34)cc12 [P-006, 5-(1H-pyrrolo[2,3-b]pyridin-3-yl)-1H-indazol-3-amine] |  | 1 to 10 µM | 1 to 10 µM |
| CC(C)(C)n1cnc2ccc(-c3c[nH]c4ncc(-c5cnc(NS(C)(=O)=O)nc5)nc34)cc21 [P-404, N-[5-[7-(3-tert-butylbenzimidazol-5-yl)-5H-pyrrolo[2,3-b]pyrazin-2-yl]pyrimidin-2-yl]methanesulfonamide] |  | 0.0001 to 1 µM | 1 to 10 µM |
| CS(=O)(=O)Nc1ccc(-c2cnc3[nH]cc(-c4ccc5ncsc5c4)c3n2)cc1 [P-076, N-[4-[7-(1,3-benzothiazol-6-yl)-5H-pyrrolo[2,3-b]pyrazin-2-yl]phenyl]methanesulfonamide] | 0.0001 to 1 µM |  | 1 to 10 µM |

The next lines start with the values.

| IC50 (FLT3-D835Y) | IC50 (FLT3-ITD) | IC50 (c-Kit) | Structure (SMILES) |
| --- | --- | --- | --- |
| 0.0001 to 1 µM | 0.0001 to 1 µM | 1 to 10 µM | COc1cccc(-c2cnc3[nH]cc(-c4ccc5ncn(C)c5c4)c3c2)c1 [P-088, 5-(3-methoxyphenyl)-3-(3-methylbenzimidazol-5-yl)-1H-pyrrolo[2,3-b]pyridine] |
| 0.0001 to 1 µM | 0.0001 to 1 µM | 1 to 10 µM | CCCS(=O)(=O)Nc1cccc(-c2cnc3[nH]cc(-c4ccc5ncn(C)c5c4)c3c2)c1 [P-121, N-[3-[3-(3-methylbenzimidazol-5-yl)-1H-pyrrolo[2,3-b]pyridin-5-yl]phenyl]propane-1-sulfonamide] |
| 0.0001 to 1 µM | 0.0001 to 1 µM | 0.0001 to 1 µM | CC(C)(C)n1cnc2ccc(-c3c[nH]c4ncc(-c5ccc(C(=O)O)nc5)nc34)cc21 [P-376, 5-[7-(3-tert-butylbenzimidazol-5-yl)-5H-pyrrolo[2,3-b]pyrazin-2-yl]pyridine-2-carboxylic acid] |
| 0.0001 to 1 µM | 0.0001 to 1 µM | 10 to 200 µM | Cn1cnc2ccc(-c3c[nH]c4ncc(Cl)cc34)cc21 [P-019, 5-chloro-3-(3-methylbenzimidazol-5-yl)-1H-pyrrolo[2,3-b]pyridine] |
| 0.0001 to 1 µM | 0.0001 to 1 µM | 10 to 200 µM | O=C(C1CC1)N1CC=C(c2cnc3[nH]cc(-c4ccc5ncn(C6CCCC6)c5c4)c3n2)C1 [P-126, [3-[7-(3-cyclopentylbenzimidazol-5-yl)-5H-pyrrolo[2,3-b]pyrazin-2-yl]-2,5-dihydropyrrol-1-yl]-cyclopropyl-methanone] |
| 0.0001 to 1 µM | 0.0001 to 1 µM | 1 to 10 µM | Cn1cc(-c2ccc(-c3cnc4[nH]cc(-c5ccc6ncn(C(C)(C)C)c6c5)c4n3)cc2)cn1 [P-306, 7-(3-tert-butylbenzimidazol-5-yl)-2-[4-(1-methylpyrazol-4-yl)phenyl]-5H-pyrrolo[2,3-b]pyrazine] |
| 0.0001 to 1 µM | 0.0001 to 1 µM | 1 to 10 µM | COc1cnc2[nH]cc(-c3ccc4ncn(C5CCCC5)c4c3)c2c1 [P-049, 1-cyclopentyl-6-(5-methoxy-1H-pyrrolo[2,3-b]pyridin-3-yl)benzimidazole] |
| 0.0001 to 1 µM | 0.0001 to 1 µM | 1 to 10 µM | Cn1cnc2ccc(-c3c[nH]c4ncc(-c5cccc(N6CCCS6(=O)=O)c5)cc34)cc21 [P-093, 2-[3-[3-(3-methylbenzimidazol-5-yl)-1H-pyrrolo[2,3-b]pyridin-5-yl]phenyl]-1,2-thiazolidine 1,1-dioxide] |
|  | 0.0001 to 1 µM | 10 to 200 µM | CC(C)(C)n1cnc2ccc(-c3c[nH]c4ncc(-c5cnc(Cl)nc5)nc34)cc21 [P-389, 7-(3-tert-butylbenzimidazol-5-yl)-2-(2-chloropyrimidin-5-yl)-5H-pyrrolo[2,3-b]pyrazine] |
|  | 0.0001 to 1 µM | 0.0001 to 1 µM | Cc1nn(C)cc1-c1cnc2[nH]cc(-c3ccc4ncn(C(C)(C)C)c4c3)c2n1 [P-324, 7-(3-tert-butylbenzimidazol-5-yl)-2-(1,3-dimethylpyrazol-4-yl)-5H-pyrrolo[2,3-b]pyrazine] |
|  | 0.0001 to 1 µM | 1 to 10 µM | CC(C)(C)n1cnc2ccc(-c3c[nH]c4ncc(-c5cncc(F)c5)nc34)cc21 [P-386, 7-(3-tert-butylbenzimidazol-5-yl)-2-(5-fluoro-3-pyridyl)-5H-pyrrolo[2,3-b]pyrazine] |
|  | 0.0001 to 1 µM | 0.0001 to 1 µM | CC(C)(C)n1cnc2ccc(-c3c[nH]c4ncc(-c5cncc(N6CCOCC6)c5)nc34)cc21 [P-387, 4-[5-[7-(3-tert-butylbenzimidazol-5-yl)-5H-pyrrolo[2,3-b]pyrazin-2-yl]-3-pyridyl]morpholine] |
